Measurements as given in PMC9297976 (Journal of Applied Toxicology, 2021).
pEC50: −log10 of the molar value.

Tests used:
medaka Esr1 (mEsr1) [1] = molecular target: T1, medaka Esr1 (mEsr1) (Oryzias latipes, UniProt P50241); test: cell-based; design: species or system Japanese medaka (Oryzias latipes); details: for In vitro positive: Esr: mode of action in which EC50 or PC10 was obtained in RGA
T1 sequence (P50241 1-620): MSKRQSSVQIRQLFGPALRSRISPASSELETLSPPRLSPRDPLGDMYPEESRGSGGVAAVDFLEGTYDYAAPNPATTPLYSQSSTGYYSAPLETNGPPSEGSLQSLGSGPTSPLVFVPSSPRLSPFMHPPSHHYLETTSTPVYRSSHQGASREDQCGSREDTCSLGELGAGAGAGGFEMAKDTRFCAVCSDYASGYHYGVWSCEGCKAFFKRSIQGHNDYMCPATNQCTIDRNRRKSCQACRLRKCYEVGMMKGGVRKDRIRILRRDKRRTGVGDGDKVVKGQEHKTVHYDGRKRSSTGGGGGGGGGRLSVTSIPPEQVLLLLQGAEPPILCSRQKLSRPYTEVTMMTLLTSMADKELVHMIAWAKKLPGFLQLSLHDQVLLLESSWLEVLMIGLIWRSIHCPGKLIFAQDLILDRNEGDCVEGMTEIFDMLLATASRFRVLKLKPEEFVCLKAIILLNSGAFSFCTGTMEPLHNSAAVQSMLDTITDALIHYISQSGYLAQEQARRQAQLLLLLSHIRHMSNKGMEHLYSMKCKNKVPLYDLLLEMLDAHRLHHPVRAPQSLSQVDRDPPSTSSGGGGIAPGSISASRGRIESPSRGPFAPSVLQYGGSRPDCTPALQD

medaka ARβ (mArβ) [2] = molecular target: T2, medaka ARβ (mArβ) (Oryzias latipes, UniProt D1MV73); test: Medaka ARβ reporter gene assay, antagonist assay; assay type: cell-based, Japanese medaka (Oryzias latipes)
T2 sequence (D1MV73 1-744): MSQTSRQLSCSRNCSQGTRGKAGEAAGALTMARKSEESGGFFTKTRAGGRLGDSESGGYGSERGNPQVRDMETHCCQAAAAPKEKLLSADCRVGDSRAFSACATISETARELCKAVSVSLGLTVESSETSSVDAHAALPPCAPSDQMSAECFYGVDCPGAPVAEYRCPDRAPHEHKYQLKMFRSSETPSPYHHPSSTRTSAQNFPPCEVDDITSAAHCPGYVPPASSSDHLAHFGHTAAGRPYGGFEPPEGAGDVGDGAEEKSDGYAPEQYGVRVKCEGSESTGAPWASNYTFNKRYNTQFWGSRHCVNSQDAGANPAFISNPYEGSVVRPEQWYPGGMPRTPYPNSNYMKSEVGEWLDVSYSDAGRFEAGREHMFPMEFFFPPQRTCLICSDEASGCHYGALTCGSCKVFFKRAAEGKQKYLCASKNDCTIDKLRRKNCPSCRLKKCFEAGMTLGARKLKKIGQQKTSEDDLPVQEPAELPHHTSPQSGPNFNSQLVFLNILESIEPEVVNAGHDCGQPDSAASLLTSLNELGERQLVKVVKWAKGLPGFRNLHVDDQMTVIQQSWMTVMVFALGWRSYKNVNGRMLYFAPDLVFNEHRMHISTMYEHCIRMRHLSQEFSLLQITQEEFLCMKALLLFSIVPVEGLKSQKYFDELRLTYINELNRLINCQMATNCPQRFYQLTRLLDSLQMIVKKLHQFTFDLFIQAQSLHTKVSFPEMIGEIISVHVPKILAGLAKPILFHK

medaka ARβ (mArβ) [3] = molecular target: T2, medaka ARβ (mArβ); test: Medaka ARβ reporter gene assay, agonist assay; assay type: cell-based, Japanese medaka (Oryzias latipes)
medaka Esr1 (mEsr1) [4] = molecular target: T1, medaka Esr1 (mEsr1); test: Medaka Esr1 reporter gene assay, antagonist assay; assay type: cell-based, Japanese medaka (Oryzias latipes); details: MAC = 1.0 × 10^−5 M
Japanese medaka = details: 12 h after fertilization to 101 days of age; ref Seki, Yokota, Matsubara, et al. (2003); cited from earlier work
[5] = system: Japanese medaka (Oryzias latipes); test: Fish Short‐Term Reproduction Assay; assay type: in vivo; details: for Fertility rate / Hepatic VTG, female / Mortality / Mortality, number of dead fish / Number of fertilized eggs (per female per day) / Number of total eggs (per female per day) / SSC female (joint plates with papillary processes) / Hepatic VTG, male / Change of hepatic VTG levels in females (in words) / Fecundity, number of total eggs (in words) / LOEC, elevated hepatic VTG in males: 21 d; for LOECREPRO: LOEC on reproduction (fecundity and/or fertility); for minimal effective concentration: Oryzias latipes, 504 h, read-out: LOECmVTG; for LOECREPRO (reduction in fecundity or fertility): concentrations without overt toxicity; for LOECTOX: lowest observed effect concentration on mortality; for GSI Female / GSI Male / HSI Female / HSI Male / Length Female / Length Male / Weight Female / Weight Male: completion of exposure
[6] = 940 μg/L measured, sig. ↓ vs control
[7] = measured concentration 58.4 μg/L
[8] = measured concentration 227 μg/L
[9] = measured concentration 940 μg/L
[10] = 2.94 mg/L measured, sig. ↑ vs control
[11] = 2.94 mg/L measured, sig. ↓ vs control
[12] = measured concentration 0.311 mg/L
[13] = measured concentration 0.926 mg/L
[14] = measured concentration 2.94 mg/L

CCC(C)(C)c1ccc(O)cc1 [Chemical 4tPP, 4‐tert‐Pentylphenol]
In vitro positive: Esr (medaka Esr1 (mEsr1) [1]): Esr
Antagonistic activity IC30 (medaka ARβ (mArβ) [2]; 11‐KT spiked at 50 nM (D)): IC30 = 1.7 × 10^−5 M^(D)
In vitro positive: aAr (medaka ARβ (mArβ) [2]; mode of action in which IC50 or IC30 was obtained in RGA): aAr
Antagonistic activity on mArβ (in words) (medaka ARβ (mArβ) [2]; transcriptional activity on mArβ by 11KT): inhibitory potency
Agonistic activity (medaka ARβ (mArβ) [3]; MAC = 1.0 × 10^−4 M): NE (MAC = 1.0 × 10^−4 M)
Antagonistic activity (medaka Esr1 (mEsr1) [4]; E2 spiked at 1.0 nM (B)): NE (MAC = 1.0 × 10^−5 M)^(B)
LOEC on abnormal sexual differentiation (Japanese medaka): 224 µg/L
LOEC on hepatic VTG induction (Japanese medaka): ≤ 51.1 µg/L
LOEC on reproductive impairment (Japanese medaka): 224 µg/L
Fertility rate ([5]; 58.4 μg/L measured): 94 ± 1.7%
Hepatic VTG, female ([5]; 58.4 μg/L measured): 2,930 ± 737 ng/mg‐liver
Mortality ([5]; 58.4 μg/L measured): 4.2%
Mortality, number of dead fish ([5]; 58.4 μg/L measured): 1
Number of fertilized eggs (per female per day) ([5]; 58.4 μg/L measured): 20 ± 3.2
Number of total eggs (per female per day) ([5]; 58.4 μg/L measured): 21 ± 3.1
SSC female (joint plates with papillary processes) ([5]; 58.4 μg/L measured): 0 ± 0
Hepatic VTG, male ([5]; 58.4 μg/L measured, sig. ↑ vs control): 970 ± 858 ng/mg‐liver
Fertility rate ([5]; 227 μg/L measured): 94 ± 2.5%
Hepatic VTG, female ([5]; 227 μg/L measured): 3,070 ± 686 ng/mg‐liver
Mortality ([5]; 227 μg/L measured): 4.2%
Mortality, number of dead fish ([5]; 227 μg/L measured): 1
Number of fertilized eggs (per female per day) ([5]; 227 μg/L measured): 19 ± 2.9
Number of total eggs (per female per day) ([5]; 227 μg/L measured): 20 ± 2.7
SSC female (joint plates with papillary processes) ([5]; 227 μg/L measured): 0 ± 0
Hepatic VTG, male ([5]; 227 μg/L measured, sig. ↑ vs control): 3,700 ± 2,300 ng/mg‐liver
Fertility rate ([5]; 940 μg/L measured): 81 ± 8.9%
Mortality ([5]; 940 μg/L measured): 13%
Mortality, number of dead fish ([5]; 940 μg/L measured): 3
SSC female (joint plates with papillary processes) ([5]; 940 μg/L measured): 0 ± 0
Hepatic VTG, female ([5]; 940 μg/L measured, sig. ↑ vs control): 8,100 ± 3,340 ng/mg‐liver
Number of fertilized eggs (per female per day) [5, 6]: 13 ± 3.5
Number of total eggs (per female per day) [5, 6]: 16 ± 4.7
Change of hepatic VTG levels in females (in words) [5]: significant increase
Fecundity, number of total eggs (in words) [5]: statistically significant decrease
LOEC, elevated hepatic VTG in males [5]: 58.4 µg/L
LOECREPRO [5]: 940 µg/L
minimal effective concentration [5]: 0.0584 µg/mL
Fertility rate (in words) ([5]; chemicals with significant decrease of number of total eggs): no significant effect
LOECREPRO (reduction in fecundity or fertility) [5]: 940 µg/L
LOECTOX [5]: ND (>940) μg/L
GSI Female [5, 7]: 10.0 ± 0.6%
GSI Male [5, 7]: 0.89 ± 0.11%
HSI Female [5, 7]: 4.3 ± 0.50%
HSI Male [5, 7]: 2.3 ± 0.18%
Length Female [5, 7]: 36.0 ± 0.5 mm
Length Male [5, 7]: 37.8 ± 1.2 mm
Weight Female [5, 7]: 558 ± 48 mg
Weight Male [5, 7]: 590 ± 39 mg
GSI Female [5, 8]: 9.9 ± 1.0%
GSI Male [5, 8]: 0.73 ± 0.16%
HSI Female [5, 8]: 4.2 ± 0.44%
HSI Male [5, 8]: 2.2 ± 0.33%
Length Female [5, 8]: 35.5 ± 0.7 mm
Length Male [5, 8]: 36.2 ± 0.6 mm
Weight Female [5, 8]: 523 ± 48 mg
Weight Male [5, 8]: 546 ± 23 mg
GSI Female [5, 9]: 8.9 ± 1.2%
GSI Male [5, 9]: 0.73 ± 0.13%
HSI Female [5, 9]: 3.9 ± 0.73%
HSI Male [5, 9]: 3.6 ± 0.50%
Length Female [5, 9]: 36.1 ± 1.6 mm
Length Male [5, 9]: 35.6 ± 0.8 mm
Weight Female [5, 9]: 588 ± 130 mg
Weight Male [5, 9]: 509 ± 47 mg

CCCOC(=O)c1ccc(O)cc1 [PPB, 4‐Hydroxybenzoate propyl]
pEC50 (medaka Esr1 (mEsr1) [1]): 5.15
In vitro positive: Esr (medaka Esr1 (mEsr1) [1]): Esr
Antagonistic activity (medaka ARβ (mArβ) [2]; 11‐KT spiked at 50 nM (D), MAC = 1.0 × 10^−5 M): NE (MAC = 1.0 × 10^−5 M)^(D)
Agonistic activity (medaka ARβ (mArβ) [3]; MAC = 1.0 × 10^−5 M): NE (MAC = 1.0 × 10^−5 M)
Antagonistic activity (medaka Esr1 (mEsr1) [4]; E2 spiked at 0.2 nM (A)): NE (MAC = 1.0 × 10^−5 M)^(A)
Fertility rate ([5]; 0.311 mg/L measured): 93 ± 3.1%
Hepatic VTG, female ([5]; 0.311 mg/L measured): 1,190 ± 238 ng/mg‐liver
Mortality ([5]; 0.311 mg/L measured): 0.0%
Mortality, number of dead fish ([5]; 0.311 mg/L measured): 0
Number of fertilized eggs (per female per day) ([5]; 0.311 mg/L measured): 26 ± 0.8
Number of total eggs (per female per day) ([5]; 0.311 mg/L measured): 28 ± 1.6
SSC female (joint plates with papillary processes) ([5]; 0.311 mg/L measured): 0 ± 0
Hepatic VTG, male ([5]; 0.311 mg/L measured, sig. ↑ vs control): 23.7 ± 9.0 ng/mg‐liver
Fertility rate ([5]; 0.926 mg/L measured): 94 ± 3.7%
Hepatic VTG, female ([5]; 0.926 mg/L measured): 1,590 ± 271 ng/mg‐liver
Mortality ([5]; 0.926 mg/L measured): 0.0%
Mortality, number of dead fish ([5]; 0.926 mg/L measured): 0
Number of total eggs (per female per day) ([5]; 0.926 mg/L measured): 23 ± 2.0
SSC female (joint plates with papillary processes) ([5]; 0.926 mg/L measured): 0 ± 0
Hepatic VTG, male ([5]; 0.926 mg/L measured, sig. ↑ vs control): 42.2 ± 36.8 ng/mg‐liver
Number of fertilized eggs (per female per day) ([5]; 0.926 mg/L measured, sig. ↓ vs control): 22 ± 1.6
Mortality ([5]; 2.94 mg/L measured): 0.0%
Mortality, number of dead fish ([5]; 2.94 mg/L measured): 0
SSC female (joint plates with papillary processes) ([5]; 2.94 mg/L measured): 0 ± 0
Hepatic VTG, female [5, 10]: 3,540 ± 1,080 ng/mg‐liver
Hepatic VTG, male [5, 10]: 4,170 ± 513 ng/mg‐liver
Fertility rate [5, 11]: 41 ± 23%
Number of total eggs (per female per day) [5, 11]: 10 ± 4.7
Change of hepatic VTG levels in females (in words) [5]: significant increase
Fecundity, number of total eggs (in words) [5]: statistically significant decrease
LOEC, elevated hepatic VTG in males [5]: 311 µg/L
LOECREPRO [5]: 926 µg/L
minimal effective concentration [5]: 0.311 µg/mL
LOECREPRO (reduction in fecundity or fertility) [5]: 926 µg/L
LOECTOX [5]: ND (>2,940) μg/L
GSI Female [5, 12]: 10.0 ± 0.2%
GSI Male [5, 12]: 0.74 ± 0.14%
HSI Female [5, 12]: 5.4 ± 0.75%
HSI Male [5, 12]: 2.7 ± 0.98%
Length Female [5, 12]: 36.1 ± 0.2 mm
Length Male [5, 12]: 36.4 ± 1.3 mm
Weight Female [5, 12]: 525 ± 27 mg
Weight Male [5, 12]: 525 ± 13 mg
GSI Female [5, 13]: 9.9 ± 1.1%
GSI Male [5, 13]: 0.78 ± 0.05%
HSI Female [5, 13]: 5.1 ± 0.20%
HSI Male [5, 13]: 2.7 ± 0.23%
Length Female [5, 13]: 36.8 ± 0.8 mm
Length Male [5, 13]: 37.1 ± 1.7 mm
Weight Female [5, 13]: 539 ± 21 mg
Weight Male [5, 13]: 515 ± 49 mg
GSI Female [5, 14]: 10.0 ± 1.1%
GSI Male [5, 14]: 0.81 ± 0.21%
HSI Female [5, 14]: 4.3 ± 0.77%
HSI Male [5, 14]: 2.3 ± 0.14%
Length Female [5, 14]: 36.5 ± 1.5 mm
Length Male [5, 14]: 36.5 ± 0.9 mm
Weight Female [5, 14]: 549 ± 83 mg
Weight Male [5, 14]: 490 ± 26 mg
